In patent publication EP4653451A1, “POLYPEPTIDE COMPOUND AND USE THEREOF” (Chengdu New Radiomedicine Technology Co., Ltd., priority 2023, dated 2024):
Numbered stars: 1 amine (or outer) side, 2 acyl side, 3 side chain; on linkers, the order of the positions; unused ones are H or OH. Bridge positions count the residues as written; N and C are the ends. Square brackets hold non-standard residues; d marks the D form. Peptide text beside a SMILES is read from it. * marks the point of attachment. TBMB(SCH2CH2NH-DOTA) = O=C(O)CN1CCN(CC(=O)O)CCN(CC(=O)NCCSCc2cc(C[*:1])cc(C[*:2])c2)CCN(CC(=O)O)CC1; 1Nal = N[C@@H](Cc1cccc2ccccc12)C(=O)O; β3hC = N[C@@H](CS)CC(=O)O; Hexanoyl = CCCCCC(=O)*

What was measured:
[1] = Pharmacokinetics after tail vein injection; format: in vivo, CD-1 mice; conditions: male, CD-1, mouse, in vivo, iv, 0.2 mg/kg
Description: Male CD-1 mice weighing 30-35 g were selected, and a test compound was injected into the tail vein at 0.2 mg/kg. Plasma samples were collected at 5, 15, 30, and 60 min and 2, 4, 8, and 24 h after administration and processed accordingly. The drug content was analyzed by LC-MS/MS.
Among them, compounds 20, 21 and 22 were compounds formed by chelating nonradioactive in with compounds 11, 14 and 16, respectively.

[2] = Distribution in tissues of HEK293-FAP tumor-bearing mice (gamma counter); format: in vivo, SCID mice; conditions: male, SCID, mouse, in vivo, 100 uCi, total radioactivity
Description: (§1) Male SCID mice (6-8 weeks old) were subcutaneously inoculated with 5 × 10^6 HEK293-FAP cells (FAP was highly expressed in HEK293 cells). 10 days later, 30 mice with tumor size of 200-300 mm^3 were randomly divided into 3 groups. Each mouse in the 3 groups was administered with compound ^177Lu-3BP-3554, compound 29 and compound 30 with a radiation dose of 100 µCi, respectively. Blood, kidney and tumor tissues were collected at time points of 4 h, 8 h, 24 h, 72 h and 168 h, and all blood samples and tissue samples were measured for radioactive counts by gamma counter.

HEK293-FAP cells = assay: as above; format: in vivo, SCID mice; conditions: for injection dose%/g tissue at different time points / tissue selectivity for kidney and blood tissues: mouse, in vivo; for Blood / Kidney / Tumor: 100 µCi, SCID mice with HEK293-FAP tumor
Description: as §1

Row | tissue to tissue ratio at 4 h ([2]; Tumor/blood) | tissue to tissue ratio at 8 h ([2]; Tumor/blood) | tissue to tissue ratio at 24 h ([2]; Tumor/blood) | tissue to tissue ratio at 72 h ([2]; Tumor/blood) | tissue to tissue ratio at 168 h ([2]; Tumor/blood) | tissue to tissue ratio at 4 h ([2]; Tumor/kidney) | tissue to tissue ratio at 8 h ([2]; Tumor/kidney) | tissue to tissue ratio at 24 h ([2]; Tumor/kidney) | tissue to tissue ratio at 72 h ([2]; Tumor/kidney) | tissue to tissue ratio at 168 h ([2]; Tumor/kidney) | SMILES | injection dose%/g tissue at different time points (HEK293-FAP cells) | tissue selectivity for kidney and blood tissues (HEK293-FAP cells) | further results
1 |  |  |  |  |  |  |  |  |  |  | CCCCCC(=O)N[C@H]1CSCc2cccc(c2F)CSC[C@@H](CNC(=O)C[C@@H](C)NC(=O)[C@H]2CC[C@H](CNC(=O)CN3CCN(CC(=O)O)CCN(CC(=O)O)CCN(CC(=O)O)CC3)CC2)NC(=O)[C@H](Cc2ccccc2)NC(=O)[C@H](CCC(N)=O)NC(=O)[C@H]([C@@H](C)O)NC(=O)[C@@H]2CCCN2C(=O)[C@@H]2CCCN2C1=O [Compound 22] |  |  | AUC(0-t) [1]: 740 ng·h/mL; Cmax [1]: 1120 ng/mL; Vd [1]: 1.18 L/kg; clearance [1]: 4.33 mL/min/kg; half-life [1]: 7.93 h
2 | 26.2 | 70.1 | 1630 | 2410 | 1160 | 2.32 | 3.18 | 3.99 | 7.12 | 27.6 | CCCCCC(=O)N[C@H]1CSCc2cc(CSCCNC(=O)CN3CCN(CC(=O)O)CCN(CC(=O)O)CCN(CC(=O)O)CC3)cc(c2)CSC[C@@H](CC(=O)O)NC(=O)[C@H](Cc2cccc3ccccc23)NC(=O)[C@H](CCC(N)=O)NC(=O)[C@H]([C@@H](C)O)NC(=O)[C@@H]2CCCN2C(=O)[C@@H]2CCCN2C1=O [Compound 29] (Hexanoyl-CPPTQ[1Nal][β3hC]-OH; linker 1-7 via TBMB(SCH2CH2NH-DOTA)) | significantly higher than that of ^177Lu-3BP-3554 | better tissue selectivity for kidney and blood tissues than ^177Lu-3BP-3554 | 
3 | 16.3 | 32.3 | 212 | 1100 | 484 | 6.88 | 5.56 | 5.95 | 6.98 | 11.8 | CCCCCC(=O)N[C@H]1CSCc2cccc(c2F)CSC[C@@H](CNC(=O)C[C@@H](C)NC(=O)[C@H]2CC[C@H](CNC(=O)CN3CCN(CC(=O)O)CCN(CC(=O)O)CCN(CC(=O)O)CC3)CC2)NC(=O)[C@H](Cc2ccccc2)NC(=O)[C@H](CCC(N)=O)NC(=O)[C@H]([C@@H](C)O)NC(=O)[C@@H]2CCCN2C(=O)[C@@H]2CCCN2C1=O [Compound 30] | significantly higher than that of ^177Lu-3BP-3554 | better tissue selectivity for kidney and blood tissues than ^177Lu-3BP-3554 | 
4 |  |  |  |  |  |  |  |  |  |  | CCCCCC(=O)N[C@H]1CSCc2cc(CSCCNC(=O)CN3CCN(CC(=O)O)CCN(CC(=O)O)CCN(CC(=O)O)CC3)cc(c2)CSC[C@@H](C(=O)O)NC(=O)[C@H](Cc2ccccc2)NC(=O)[C@H](CCC(N)=O)NC(=O)[C@H]([C@@H](C)O)NC(=O)[C@@H]2CCCN2C(=O)[C@@H]2CCCN2C1=O [^177Lu-3BP-3554, metal not drawn, reference compound] |  |  | Blood (HEK293-FAP cells; 4 h): 0.07 ID %/g; Kidney (HEK293-FAP cells; 4 h): 6.65 ID %/g; Tumor (HEK293-FAP cells; 4 h): 21.21 ID %/g; Blood (HEK293-FAP cells; 8 h): 0.02 ID %/g; Kidney (HEK293-FAP cells; 8 h): 6.37 ID %/g; Tumor (HEK293-FAP cells; 8 h): 18.42 ID %/g; Blood (HEK293-FAP cells; 24 h): 0.01 ID %/g; Kidney (HEK293-FAP cells; 24 h): 2.92 ID %/g; Tumor (HEK293-FAP cells; 24 h): 10.37 ID %/g; Blood (HEK293-FAP cells; 72 h): 0.0038 ID %/g; Kidney (HEK293-FAP cells; 72 h): 0.86 ID %/g; Tumor (HEK293-FAP cells; 72 h): 5.05 ID %/g; Blood (HEK293-FAP cells; 168 h): 0.0091 ID %/g; Kidney (HEK293-FAP cells; 168 h): 0.16 ID %/g; Tumor (HEK293-FAP cells; 168 h): 1.52 ID %/g
